These results are taken from patent US20080194528A1, “Pharmaceutical compositions comprising organopolysiloxane elastomers and solubilized bioactive compounds” (GALDERMA RESEARCH AND DEVELOPMENT, priority 2005, published 2008).

This data set is described as follows: Active ingredient solubility tests in various solvents. The format is physicochemical. As to the method:
The solubility of {4-[6-ethyl-4′-(1-ethyl-1-hydroxypropyl)-2′-propylbiphenyl-3-yloxymethyl]-2-hydroxymethylphenyl}methanol was tested in various solvents.

As to `CCCc1cc(C(O)(CC)CC)ccc1-c1cc(OCc2ccc(CO)c(CO)c2)ccc1CC` [compound 3, {4-[6-ethyl-4′-(1-ethyl-1-hydroxypropyl)-2′-propylbiphenyl-3-yloxymethyl]-2-hydroxymethylphenyl}methanol], the “Max sol (% w/w)” value reads like this: (in Arlamol E) 1.033 % w/w; (in Cremophor RH40) 3.989 % w/w; (in Ethanol 95) more than 20 % w/w; (in Eutanol G) 0.322 % w/w; (in IPP) 0.1654 % w/w; (in Labrafil M1944CS) 0.936 % w/w. Moreover, the “Max sol (% w/w)” value runs as follows: (in Miglyol 812) 0.3167 % w/w; (in PEG 400) 6.894 % w/w; (in Primol 352) 0.0009 % w/w; (in Propylene Glycol) 2.3351 % w/w; (in Sweet almond oil) 0.0932 % w/w; (in Transcutol) more than 20 % w/w.
